Reference: patent US20250108023A1, “Products for Masking Bitterness” (The Third People's Hospital of Henan Province, priority 2023, published 2025)
Where two headings read alike, the source gives them in different places.

What was measured:
[1] = Oral spray bitterness masking taste test by volunteers with Coptis chinensis standard bitter solution; assay type: in vivo, healthy volunteers; parameters: key to bitterness value after drug: bitterness value 0.5–5.5; 1 = none, 5 = unbearable; key to Reduction of bitterness: drop in bitterness value (0.5–5.5 scale) from initial; conditions: for inhibition in vivo at 0.2 %: Homo sapiens, read-out: Reduction range; for Reduction of bitterness: original bitterness average 4.0, average of 31 cases; for Duration >: retention time until bitterness rises; for bitterness value after drug: initial bitterness 4.0, 16 cases
Procedure: Purpose of the experiment: it is to screen out compounds that take effect within 5 seconds, last for 30-120 seconds, and it is expected, by using such kind of compounds, the taste of the drug cannot be felt during the duration (30-120 seconds) when taking the drug.
Principle of the experiment: simulate the process of taking medicine and using the taste masking agents, first spray about 0.5 ml of oral spray on the throat (3 times), and after it takes effect quickly, taste 10 ml of bitter standard solution to screen drugs that can be used in advance and can mask the bitter taste.
• 1: Volunteer screening. The research team strictly screened the recruited volunteers and finally selected healthy volunteers as subjects. They signed informed consent forms before the experiment; • 2: Standard bitterness sample preparation. The bitterness of the samples was divided into five levels, and each level was assigned a certain bitterness value range; • 3: The sensory standard was corrected by the oral taste evaluation method, that is, the sensory standard was corrected by comparing the taste evaluation of the volunteers with the established bitterness value of the reference sample group. Specific steps: when the volunteers are doing the oral tasting test, the reference solutions of various concentrations are placed in the tasting cups, and the volunteers hold one of the solutions in their mouths, time it, and rinse their mouths by using the solution so that the bitter taste perception area at the root and sides of the tongue can fully feel the bitter taste of the drug. […] Then dilute all the selected taste masking drugs, prepare the solution, take 10 ml and put it into the spray bottle, spray it into the mouth 3 times, stay for 5 seconds, drink 10 ml of standard bitterness solution, feel and record the bitterness value, keep the standard bitterness solution in the mouth until the bitterness rises, and record the retention time. • 5: Quality control. […] Since the experimental objects are biological samples and there are individual differences between different subjects, there may be individual outliers in the experimental test data. The Grubbs test method was used to exclude outliers in the data, and then the experimental data were plotted in tables and curves for data analysis.
It is necessary to process the experimental data. Specifically, the Grubbs test method was used to perform a circular test and elimination of outliers on the data, and a bilateral test was used to eliminate outliers in the oral test. Considering the characteristics of biological samples, the detection level was selected as 0.1 and the elimination level was selected as 0.05 in this experiment.
The experimental medicinal material processing method mentioned in the above technical scheme is as follows: Preparation of bitter standard solution, use 10 g of Coptis chinensis powder, add 100 ml of pure water above 90 degrees, stir, let stand for 20 minutes, take the supernatant for use, determine the standard bitterness of 4.0 degrees by oral tasting, dilute 5 times, determine the standard bitterness of 2.0 degrees, dilute 2.0 degrees again 5 times, determine the standard bitterness of 0.5 degrees. Compare with the bitterness scoring table, (level 1 means “no bitterness or almost no bitterness”, the bitterness value is 0.5˜1.5; level 2 means “slightly bitter”, the bitterness value is 1.5˜2.5; level 3 means “bitter but acceptable”, the bitterness value is 2.5˜3.5; level 4 means “very bitter, but still tolerable”, the bitterness value is 3.5˜4.5; level 5 means “unbearable bitterness”, the bitterness value is 4.5˜5.5). Adjust the judgment and cognition of bitterness.
The standard bitterness solution used in this experiment to verify the experimental effect is a 4.0 degree bitterness solution of Coptis chinensis prepared according to the above method.

[2] = Broad-spectrum taste masking test on decoctions of extremely bitter Chinese herbal medicine slices; assay type: in vivo, healthy volunteers; parameters: key: reduction in bitterness degrees on a 5-degree graduation scale; conditions: 0.1% taste masking agent in 40% ethanol
Procedure: According to the standard of decocting 100 ml of liquid from 10 g of dry Chinese herbal medicine slices (decoction method: use a stainless steel container, and keep for 20 minutes after boiling), from 300 commonly used Chinese herbal medicine slices, combined with the Chinese Pharmacopoeia, more than 20 Chinese herbal medicines with bitter or extremely bitter properties written in the pharmacopoeia were selected, including Bletilla striata, Cortex qin, Stephania tetrandra, Apricot kernel, Belamcanda chinensis, Angelica dahurica, Lotus seed heart, Toosendan fruit, Andrographis paniculata, Sophora flavescens, Coptis chinensis, Gentiana scabra, Forsythia suspensa, Sophora japonica, Phellodendron amurense, Scutellaria baicalensis, Platycodon grandiflorum, Notopterygium wilfordii, Saposhnikovia divaricata, Perilla frutescens, Zanthoxylum bungeana, Osmanthus fragrans, Sophora flavescens, and Chrysanthemum officinale, totally 24 kinds of Chinese herbal medicines.
Finally, through the 5-degree graduation method, 2 species with a bitterness higher than 3.5 (moderate bitterness) and 7 species with a bitterness higher than 5 degrees (highly bitter, extremely bitter, accompanied by nausea) were screened out, a total of 9 species (Angelica pubescens, Lotus Seed Heart, Toosendan, Andrographis paniculata, Sophora flavescens, Coptis chinensis, Gentiana scabra, Forsythia suspensa, Sophora japonica) are selected as bitterness representatives to participate in the bitterness masking experiment. (Note: The bitterness of Coptis chinensis slices can reach 5.2 after 20 minutes of water decoction. The reference standard solution is 90-degree water brewing Coptis chinensis powder, it is automatically cooled to obtain a solution with a bitter taste of 4.0. Because Coptis chinensis has been used as a standard bitter liquid, it is no longer used).
The experimental method is the same as the previous part.

[3] = 0.2% solution in 60% ethanol as oral spray, relative to original bitterness 4.0
[4] = 0.2% solution in 60% ethanol as oral spray
[5] = concentration 0.001% in 60% ethanol
[6] = concentration 0.005% in 60% ethanol
[7] = concentration 0.02% in 60% ethanol
[8] = concentration 0.10% in 60% ethanol
[9] = concentration 0.50% in 60% ethanol

Compound	inhibition in vivo at 0.2 % [1, 3]	Reduction of bitterness [1, 4]	Reduction range [1, 3]	Duration > [1, 4]	bitterness value after drug [1, 5]	bitterness value after drug [1, 6]	bitterness value after drug [1, 7]	bitterness value after drug [1, 8]	bitterness value after drug [1, 9]	further results
O=c1c(O)c(-c2ccc(O)c(O)c2)oc2cc(O)cc(O)c12 [Quinolide]	0%									
COC(=O)[C@@H]1CC2=CC(=O)CC[C@]2(C)[C@@]23O[C@@H]2C[C@@]2(C)[C@@H](CC[C@@]24CCC(=O)O4)[C@H]13 [Eplerenone, reference compound]	0%									
O=C(CCc1ccc(O)cc1)c1c(O)cc(O)cc1O [Phloretin]	0%									
CCNC(=O)[C@@H]1C[C@H](C)CC[C@H]1C(C)C [Menthamide, N-ethyl-L-menthyl carboxamide]		2.5	62.50%	> 120 s	2.4	1.8	1.5	1.5	1.6	Bitterness reduction value ([2]; Andrographis paniculata, original bitterness 5): 0.5; Bitterness reduction value ([2]; Forsythia suspensa, original bitterness 3): 1.7; Bitterness reduction value ([2]; Gentiana, original bitterness 5): 1; Bitterness reduction value ([2]; Lotus seed heart, original bitterness 5): 2.8; Bitterness reduction value ([2]; Puhuo, original bitterness 5): 2.1; Bitterness reduction value ([2]; Sophora flavescens, original bitterness 5): 1; Bitterness reduction value ([2]; Toulianzi, original bitterness 5): 1
trans-caryophyllene		2.3	57.50%	> 30 s	3.8	2.6	1.9	1.7	1.8	
CCCN(CCC)S(=O)(=O)c1ccc(C(=O)O)cc1 [Probenecid, reference compound]	12.5%			> 30 s						
Dodecalactone		0	0.00%							
COc1cc(C=O)cc(O)c1O [Hydroxyvanillin]		0	0.00%							
CNC(=O)C(C)(C(C)C)C(C)C [Cooling agent WS-23, N,2,3-trimethyl-2-isopropylbutyramide]	50%			> 30 s	2.5	2.4	2.1	2	2.1	
CC1(C)C2CCC1(C)C(O)C2 (stereo not shown) [Borneolum, 2-borneol]	52.5%			> 10 s	4	3.4	2.6	1.9	2.2	
CCCCCC1=C(C)CCC1=O [Dihydrojasmone]		0	0.00%							
O=C(/C=C/C=C/c1ccc2c(c1)OCO2)N1CCCCC1 [Piperine, (E,E)-1-[5-(1,3-benzodioxol-5-yl)-1-oxo-2,4-pentadieny1]-piperidine]	52.5%			> 30 s	3.9	2.5	2.3	1.9	1.9	
CCOC(=O)CNC(=O)[C@@H]1C[C@H](C)CC[C@H]1C(C)C [Cooling agent WS-5, [((IR, 2S, 5R)-2-isopropyl-5-methyl-cyclohexanecarbonyl)-amino]-ethyl acetate]		2.3	57.50%	> 100 s	2.6	1.8	1.7	1.7	1.8	
Cc1ccc(C(C)C)cc1O [Carvacrol]										inhibition in vivo at 0.2 % ([1]; po): 0%
